From PubChem BioAssay (NCI)
Several values for one entry are separate records, joined by “and”; a condition that tells them apart may be missing. Equal values may be shown once.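 1) Cells in 96-well plates. 2) Compound, 48 h, 5 concentrations. 3) Linear interpolation between surrounding doses. 4) Unreached endpoint = highest concentration. GI50 = concentration required for 50% inhibition of growth. TGI: total growth inhibition.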

Legend:
Assay in all cases: NCI anticancer screen, dose series, 48 h
[1] = tested on: HS 578T breast
[2] = tested on: SR leukemia
[3] = tested on: UACC-257 melanoma
[4] = tested on: K-562 leukemia
[5] = tested on: LOX IMVI melanoma
[6] = tested on: SW-620 colon
[7] = tested on: MDA-MB-435
[8] = tested on: MDA-MB-231 breast
[9] = tested on: KM20L2 colon
[10] = tested on: DLD-1 colon

Structure (SMILES)	GI50 [1]	TGI [1]	GI50 [2]	TGI [2]	GI50 [3]	TGI [3]	GI50 [4]	TGI [4]	GI50 [5]	TGI [5]	GI50 [6]	TGI [6]	GI50 [7]	TGI [7]	GI50 [8]	TGI [8]	TGI [9]	TGI [10]
CC/C(=C(/c1ccc(OCCN(C)C)cc1)c1ccc(OC(=O)CCC(=O)c2c(C)[nH]c(/C=C3\N=C(c4ccc[nH]4)C=C3OC)c2C)cc1)c1ccccc1	1.15 µM	4.72 µM	0.694 µM	5.38 µM	3.38 µM	14.7 µM	2.32 µM	6.37 µM	0.456 µM	1.69 µM	0.76 µM	2.57 µM	2.56 µM	10.2 µM	0.441 µM	2.38 µM	–	–
Nc1cc(C(=O)O)[nH]c(=O)n1	–	> 100 µM	–	> 100 µM	–	> 100 µM	–	> 100 µM	–	> 100 µM	–	> 100 µM	–	> 100 µM	–	> 100 µM	–	–
CC(C)c1c(C(=O)Nc2ccccc2)c(-c2ccccc2)c(-c2ccc(F)cc2)n1CC[C@@H]1CC=CC(=O)O1	2.14 µM	6.05 µM	2.66 µM	9.49 µM	1.97 µM	3.92 µM	0.422 µM	2.62 µM	1.63 µM	3.06 µM	1.71 µM	3.52 µM	1.7 µM	3.27 µM	2.08 µM	4.51 µM	–	–
Cc1ccc2c(c1)c1nc3cc(C)c(C)cc3nc1n2CCN(C)C	2.74 µM	8.04 µM	1.06 µM	14.2 µM	2.2 µM	5.48 µM	2.6 µM	50.3 µM	1.45 µM	4.45 µM	1.13 µM	5.46 µM	1.98 µM	4.42 µM	2.11 µM	8.5 µM	–	–
Cc1cc(NCCCNc2ccnc3cc(Cl)ccc23)nc(N2CCN(C)CC2)n1	12.4 µM	36.9 µM	1.81 µM	6.41 µM	1.8 µM	3.88 µM	1.86 µM	11.7 µM	2 µM	5.2 µM	2.62 µM	17.5 µM	2.57 µM	7.07 µM	2.07 µM	15.8 µM	–	–
Cn1cc(C2=C(c3cn(CCO)c4ccccc34)C(=O)NC2=O)c2ccccc21	1.49 µM	14.5 µM	1.02 µM	> 23.3 µM	4.75 µM	22.6 µM	1.12 µM	> 25 µM	2.77 µM	> 25 µM	1.21 µM	> 25 µM	0.746 µM	> 25 µM	5.98 µM	> 22.4 µM	–	–
CN(Cc1ccc(Cl)cc1)c1ccc(CO)c(Cl)c1	12.5 µM	39.8 µM	13.1 µM	54.8 µM	0.515 µM	2.45 µM	3.79 µM	> 65.7 µM	4.48 µM	16.7 µM	3.85 µM	19.5 µM	13.5 µM	27.9 µM	11 µM	29.9 µM	–	–
O=C(Nc1ccc(F)cc1)Nc1ccccc1CNc1nc(Nc2ccc(OCCN3CCCC3)cc2)ncc1Cl	0.99 µM	2.58 µM	1.81 µM	50 µM	1.07 µM	2.35 µM	1.2 µM	3.06 µM	0.914 µM	1.69 µM	1.65 µM	6.84 µM	1.03 µM	2.28 µM	0.871 µM	1.77 µM	–	–
CCOc1ccc(-c2cnnn2-c2nonc2-n2cccc2)cc1	0.229 µM	0.873 µM	0.104 µM	41.4 µM	0.449 µM	> 69 µM	0.0638 µM	> 100 µM	0.46 µM	> 100 µM	0.111 µM	> 100 µM	0.0345 µM	0.168 µM	0.337 µM	5.03 µM	–	–
N#Cc1ncc(-c2ccc(C(F)(F)F)cc2)c(NCc2cc(C(F)(F)F)cc(C(F)(F)F)c2)n1	3.08 µM	59.8 µM	2.97 µM	13.8 µM	3.06 µM	9.92 µM	3.74 µM	> 100 µM	3.02 µM	16.5 µM	3.13 µM	> 100 µM	3.42 µM	> 100 µM	3.17 µM	12.6 µM	–	–
CN(CCCCCl)P(=O)(OCc1ccc([N+](=O)[O-])o1)OCC1OC(n2ccc(N)nc2=O)C(F)(F)C1O (configuration not stated)	> 68 µM	> 100 µM	0.801 µM	5.63 µM	17.2 µM	> 100 µM	13 µM	> 100 µM	0.754 µM	> 40.6 µM	> 62 µM	> 100 µM	0.473 µM	> 50.9 µM	> 49.3 µM	> 100 µM	–	–
O=C(O)C1=CCCc2ccc3ccccc3c21	–	–	–	–	–	> 100 µM	–	> 100 µM	–	> 100 µM	–	> 100 µM	–	–	–	–	> 100 µM	–
COc1cccc(C2C3=C(COC3=O)N(CCO)c3cc(OC)ccc32)c1 (configuration not stated)	0.188 µM	> 80.8 µM	0.0493 µM	> 100 µM	0.036 µM	> 100 µM	0.0895 µM	> 100 µM	0.227 µM	> 100 µM	0.0863 µM	> 100 µM	0.0232 µM	0.0631 µM	0.362 µM	4.91 µM	–	–
O=C(Nc1ccccc1)c1nn(-c2cc(S(=O)(=O)O)c([N+](=O)[O-])cc2Cl)[n+](-c2cc(S(=O)(=O)[O-])c([N+](=O)[O-])cc2Cl)n1	–	> 100 µM	–	> 100 µM	–	> 100 µM	–	> 100 µM	–	> 100 µM	–	> 100 µM	–	> 100 µM	–	94 µM	–	–
CC(=O)N1N=C(c2ccc(Nc3nc(Nc4ccc(Cl)cc4)nc(Nc4ccc(Cl)cc4)n3)cc2)CC1c1ccc([N+](=O)[O-])cc1 (configuration not stated)	7.7 µM	97.7 µM	2.66 µM	20.5 µM	11.4 µM	> 72.4 µM	2.65 µM	28.7 µM	5.66 µM	> 47.1 µM	8.77 µM	> 100 µM	4.59 µM	36 µM	10.2 µM	> 92 µM	–	–
CC(C)(O)C#Cc1ccc(/C=C/C(=O)c2ccccc2)s1	25.5 µM	79.7 µM	3.85 µM	13.8 µM	18.4 µM	32.4 µM	16.5 µM	56.3 µM	13.8 µM	26.7 µM	19.5 µM	40.9 µM	12.6 µM	26.4 µM	16.7 µM	32.3 µM	–	–
CSc1cccc(-n2c3nc(=O)n(C)c(=O)c-3nc3ccccc32)c1	–	–	–	–	–	–	–	32.5 µM	–	–	–	22 µM	–	–	–	–	15.4 µM	32.6 µM

Structure (SMILES)	GI50 [1]	TGI [1]	GI50 [2]	TGI [2]	GI50 [3]	TGI [3]	GI50 [4]	TGI [4]	GI50 [5]	TGI [5]	GI50 [6]	TGI [6]	GI50 [7]	TGI [7]	GI50 [8]	TGI [8]	TGI [9]	TGI [10]
CCN(CC)CCCn1cnc2ncccc2c1=O	–	–	–	> 100 µM	–	–	–	> 100 µM	–	> 100 µM	–	> 100 µM	–	–	–	–	–	> 100 µM
O=C1c2cccnc2C(=O)C2C3C=CC(C3)C12 (configuration not stated)	–	85.1 µM	–	6.65 µM	–	26.2 µM	–	34.9 µM	–	15.7 µM	–	28.2 µM	–	5.7 µM	–	9.97 µM	–	–
COC(=O)C1=C(C)NC(C)=C(C(=O)OC)C1/C=C(\Cl)c1ccc(Cl)c(Cl)c1	12.2 µM	33.4 µM	3.3 µM	22.4 µM	18 µM	36.1 µM	10.6 µM	40.3 µM	11.4 µM	23.5 µM	12.2 µM	28.7 µM	15.1 µM	32.1 µM	11.9 µM	25.3 µM	–	–
O=c1c2c3c(sc2n2c(-c4cc(-c5ccccc5)no4)nnc2n1Cc1ccccc1)CCCC3	18.7 µM	> 94.7 µM	4.94 µM	> 42 µM	23.9 µM	> 74 µM	7.01 µM	> 68.1 µM	7.76 µM	> 62.4 µM	31.4 µM	> 100 µM	24.1 µM	> 91.9 µM	4.94 µM	55.2 µM	–	–
CCCc1cc(O)c2c3c(c(=O)oc2c1)CN(C)CC3	41.3 µM	> 100 µM	36.1 µM	> 100 µM	26.1 µM	> 100 µM	31.8 µM	> 100 µM	76.2 µM	> 100 µM	> 100 µM	> 100 µM	43.5 µM	> 100 µM	35 µM	> 100 µM	–	–
S=C(N/N=C(/c1ccccc1)c1ccccn1)N1CCCCC1	1.3 µM	6.74 µM and 5.88 µM	< 0.001 µM	< 0.001 µM	< 0.001 µM	1.04 µM and 1.16 µM	< 0.001 µM	< 0.001 µM	–	1.95 µM and 1.32 µM	< 0.001 µM	1.23 µM and 2.96 µM	–	1.98 µM and 1.85 µM	< 0.001 µM	2.42 µM and 2.21 µM	–	–
Clc1ccc(/C=C/c2cc(N3CCOCC3)c3cc(Cl)c(Cl)cc3n2)cc1	> 100 µM	> 100 µM	14.9 µM	> 61.8 µM	> 100 µM	> 100 µM	> 100 µM	> 100 µM	> 100 µM	> 100 µM	> 100 µM	> 100 µM	> 100 µM	> 100 µM	11.1 µM	> 100 µM	–	–
C/C=C/C/C=C/CCC(=O)[C@H]1O[C@H]1C(N)=O	15.9 µM	> 100 µM	12.6 µM	> 100 µM	13.1 µM	27.3 µM	19 µM	> 86.8 µM	8.38 µM	21.5 µM	11.9 µM	27.9 µM	11.6 µM	25 µM	13.1 µM	26.8 µM	–	–
CCOC(=O)c1sc2ncn(Cc3cccc(Br)c3)c(=O)c2c1C	38.6 µM	> 100 µM	8.18 µM	88.7 µM	21.1 µM	84.4 µM	16.8 µM	> 100 µM	84.9 µM	> 100 µM	97.6 µM	> 100 µM	54.1 µM	> 100 µM	12.5 µM	74.8 µM	–	–
CC(=O)Nc1ccc(/C=C/C(=O)c2ccccc2)cc1	5.97 µM	43.3 µM	3.24 µM	22 µM	20.7 µM	54.7 µM	3.28 µM	> 100 µM	4.71 µM	18.9 µM	4.32 µM	17.1 µM	17.4 µM	50.5 µM	17.7 µM	44.6 µM	–	–
Nc1ccccc1-c1ccc([N+](=O)[O-])cc1	50.8 µM	> 100 µM	29 µM	> 100 µM	21.1 µM	> 100 µM	1.32 µM	> 100 µM	37.4 µM	> 100 µM	19.3 µM	> 100 µM	5.01 µM	> 100 µM	36.3 µM	> 100 µM	–	–
COc1cc2cc(C(=O)CCC(=O)O)sc2cc1OC	> 100 µM	> 100 µM	3.53 µM	> 100 µM	33.4 µM	> 100 µM	> 100 µM	> 100 µM	> 100 µM	> 100 µM	> 100 µM	> 100 µM	> 100 µM	> 100 µM	> 100 µM	> 100 µM	–	–
CCCCCCc1cc2cc(-c3nc4ccccc4[nH]3)c(=Nc3ccccc3C)oc2cc1O	2.37 µM	6.71 µM	1.86 µM	4.47 µM	2.6 µM	7.01 µM	3.1 µM	9.29 µM	1.87 µM	3.74 µM	2.04 µM	4.91 µM	2.16 µM	5.05 µM	2.37 µM	6.4 µM	–	–
CC1=C(/C=C/C(=O)O)C(C)(C)CCC1	–	> 100 µM	–	> 100 µM	–	> 100 µM	–	> 100 µM	–	> 100 µM	–	> 100 µM	–	> 100 µM	–	> 100 µM	–	–
CCN1/C(=C/C=C/c2n(-c3ccccc3)c3ccc(-c4nc5ccccc5s4)cc3[n+]2CC)N(c2ccccc2)c2ccc(-c3nc4ccccc4s3)cc21	0.284 µM	> 50 µM	1.4 µM	> 50 µM	0.539 µM	> 15.4 µM	0.471 µM	> 50 µM	1.22 µM	> 50 µM	0.445 µM	> 50 µM	1.35 µM	> 50 µM	0.19 µM	1.68 µM	–	–
c1ccc2c(c1)sc1c3cnccc3ccc21	–	> 100 µM	–	> 100 µM	–	> 100 µM	–	> 100 µM	–	> 100 µM	–	> 100 µM	–	> 100 µM	–	> 100 µM	–	–
